Experimental data taken from PMC12892976, “Alkylation-based optimization of antifungal FPPS inhibitors yields a potent, broad-spectrum lipophilic zoledronate derivative” (mBio, 2025).
Converted amounts (≈) assume the structure as drawn. Like-named read-outs stand apart in the source and are kept apart here.

Columns and labels:
[1] = system: Candida glabrata; assay: checkerboard drug interaction (FICI, MICc);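 also: simplified diagonal checkerboard screen pairing antifungals with FPPS inhibitors, FICI calculated under the Loewe additivity model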; format: cell-based; settings: C. glabrata, KET:INH combination
Method: (§1) Drug interactions between antifungals and FPPS inhibitors were investigated using a simplified checkerboard diagonal screening method ([45]). […] FICIs were determined according to the Loewe additivity model ([17]).

[2] = system: Saccharomyces cerevisiae; assay: MIC/MFC broth microdilution (CLSI); format: cell-based; settings: Saccharomyces cerevisiae S288c
Method: (§2) Antifungal susceptibility was determined by broth microdilution according to the CLSI guidelines described in M27-Ed4 ([16]). […] MFC was determined by back-plating drug-treated cultures from MIC broths onto SDA plates. The MFC was defined as the lowest concentration from which no colonies could be cultured.

[3] = system: Cryptococcus neoformans; assay: MIC/MFC broth microdilution (CLSI); settings: Cryptococcus neoformans;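 also: susceptibility testing followed the CLSI M27-Ed4 broth microdilution document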
Method: as §2

[4] = system: Cryptococcus deuterogattii; assay: MIC/MFC broth microdilution (CLSI); settings: Cryptococcus deuterogattii;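 also: broth microdilution per CLSI M27-Ed4. MFC is the lowest concentration yielding no colonies when MIC broths are subcultured onto SDA plates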
Method: as §2

[5] = system: Aspergillus fumigatus; assay: MIC/MFC broth microdilution (CLSI); settings: ATCC204305
Method: as §2

[6] = system: Candida glabrata; assay: MIC/MFC broth microdilution (CLSI); settings: Nakaseomyces glabratus, CBS138;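 also: broth microdilution following CLSI M27-Ed4, MFC taken as the lowest drug level yielding no growth once MIC wells were subcultured on SDA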
Method: as §2

[7] = system: Aspergillus fumigatus; assay: checkerboard drug interaction (FICI, MICc);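 as to all read-outs here: simplified diagonal checkerboard screen pairing antifungals with FPPS inhibitors against Aspergillus fumigatus, with FICI calculated under the Loewe additivity model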; format: cell-based; settings: A. fumigatus; for INH FD (MIC-MICc fold decrease): fold decrease of inhibitor MIC
Method: as §1

[8] = system: Aspergillus flavus; assay: MIC/MFC broth microdilution (CLSI); settings: ATCC204304
Method: as §2

[9] = system: HEK-293T cells; assay: MTT reduction cytotoxicity assay; format: cell-based; settings: Homo sapiens, HEK-293T, 72 h, MTT, 72 h
[10] = system: eight fungal species; assay: MIC/MFC summary across the eight fungal species of Table 1; format: cell-based
Method: The antifungal activity of these compounds was evaluated according to CLSI guidelines ([16]).

[11] = system: Cryptococcus deuterogattii; assay: checkerboard drug interaction (FICI, MICc);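 as to all read-outs here: simplified diagonal checkerboard screen pairing antifungal drugs with FPPS inhibitors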; format: cell-based; settings: C. deuterogattii; for INH FD (MIC-MICc fold decrease): fold decrease of inhibitor MIC
Method: as §1

[12] = system: Trichophyton rubrum; assay: MIC/MFC broth microdilution (CLSI); settings: Trichophyton rubrum
Method: as §2

[13] = system: Aspergillus flavus; assay: checkerboard drug interaction (FICI, MICc);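 also: simplified diagonal checkerboard screen pairing azole antifungals with FPPS inhibitors, FICI calculated under the Loewe additivity model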; format: cell-based; set-up: INH MICc (KET:INH) / INH MICc (FLC:INH): unit not given beside the values; settings: A. flavus
[14] = system: eight fungal species; assay: checkerboard interaction with azoles, summary across the eight species; format: cell-based; settings: geometric mean MIC in combination with azoles
Description: Synergy between lipophilic FPPS inhibitors and azole antifungals was investigated by determining the fractional inhibitory concentration index (FICI) (Fig. 2; Table S1 Fig. S1) ([17]). […]. Derivatives PLA9 and 11, and PDA9, 11, and 12 antagonized azoles in C. albicans, C. neoformans, and C. deuterogattii, yet were largely synergistic in C. glabrata and S. cerevisiae. […].

[15] = FLC:INH combination, MIC of the inhibitor in combination with FLC
[16] = FLC:INH combination, fold decrease of FLC MIC
[17] = ITR:INH combination, MIC of the inhibitor in combination with ITR
[18] = ITR:INH combination, fold decrease of ITR MIC
[19] = KET:INH combination, MIC of the inhibitor in combination with KET
[20] = KET:INH combination, fold decrease of KET MIC

With `CCCCCCCCCCN1CCC[C@H]1C(=O)N[C@@H](CC(=O)OC)C(=O)OC` [dmPLA10] the “INH MICc” value ([1]; MIC of the inhibitor in combination with KET) was 8, the “KET FD (MIC-MICc fold decrease)” value ([1]; fold decrease of KET MIC) was 1 and the “INH FD (MIC-MICc fold decrease)” value ([1]; fold decrease of inhibitor MIC) was 2. It also gave an MFC [2] of 16 µg/mL (≈ 40.1 µM), an MIC [2] of 8 µg/mL (≈ 20.1 µM) and an MFC [3] of 64 µg/mL (≈ 161 µM). For the same compound, the MIC [3] was 16 µg/mL (≈ 40.1 µM), the MFC [4] was 128 µg/mL (≈ 321 µM) and the MIC [4] was 16 µg/mL (≈ 40.1 µM). For the same compound, the MFC [5] was 128 µg/mL (≈ 321 µM), the MIC [5] was 32 µg/mL (≈ 80.3 µM) and the MFC [6] was 32 µg/mL (≈ 80.3 µM). The MIC [6] was 32 µg/mL (≈ 80.3 µM), the FICI ([7]; FLC:INH combination) was 1.06 and the “FLC MICc” value ([7]; FLC:INH combination, MIC of FLC in combination with the inhibitor) was 8. The “INH MICc” value [7, 15] was 16, the “FLC FD (MIC-MICc fold decrease)” value [7, 16] was 16 and the “INH FD (MIC-MICc fold decrease)” value ([7]; FLC:INH combination) was 1. For the same compound, the FICI ([7]; ITR:INH combination) was 0.63, the “ITR MICc” value ([7]; ITR:INH combination, MIC of ITR in combination with the inhibitor) was 0.063 and the “INH MICc” value [7, 17] was 2. For the same compound, the “ITR FD (MIC-MICc fold decrease)” value [7, 18] was 2, the “INH FD (MIC-MICc fold decrease)” value ([7]; ITR:INH combination) was 8 and the FICI ([7]; KET:INH combination) was 2.25. The “KET MICc” value ([7]; KET:INH combination, MIC of KET in combination with the inhibitor) was 1, the “INH MICc” value [7, 19] was 32 and the “KET FD (MIC-MICc fold decrease)” value [7, 20] was 4. The “INH FD (MIC-MICc fold decrease)” value ([7]; KET:INH combination) was -2, the MFC [8] was 64 µg/mL (≈ 161 µM) and the MIC [8] was 64 µg/mL (≈ 161 µM). For the same compound, the IC50 ([9]; HEK-293T cells, read-out: IC50) was 1.57 µg/mL (≈ 3.95 µM), the IC50 ([9]; read-out: HEK IC50) was 1.57 µg/mL (≈ 3.95 µM) and the “Geometric mean MFC” value ([10]; across eight species) was 64.0 µg/mL. For the same compound, the MFC ([10]; across eight species, read-out: Geometric mean MFC) was 64 µg/mL (≈ 161 µM), the MIC ([10]; geometric mean across eight species, read-out: GM fungal MIC) was 20.7 µg/mL (≈ 51.9 µM) and the MIC ([10]; read-out: Geometric mean MIC) was 20.7 µg/mL (≈ 51.9 µM). The FICI ([11]; FLC:INH combination) was 0.38, the “INH MICc” value [11, 15] was 8 and the “FLC FD (MIC-MICc fold decrease)” value [11, 16] was 8. For the same compound, the “INH FD (MIC-MICc fold decrease)” value ([11]; FLC:INH combination) was 4, the FICI ([11]; ITR:INH combination) was 0.5 and the “INH MICc” value [11, 17] was 8. For the same compound, the “ITR FD (MIC-MICc fold decrease)” value [11, 18] was 4, the “INH FD (MIC-MICc fold decrease)” value ([11]; ITR:INH combination) was 4 and the FICI ([11]; KET:INH combination) was 0.28. For the same compound, the “INH MICc” value [11, 19] was 8, the “KET FD (MIC-MICc fold decrease)” value [11, 20] was 32 and the “INH FD (MIC-MICc fold decrease)” value ([11]; KET:INH combination) was 4. For the same compound, the MFC [12] was > 128 µg/mL, the MIC [12] was 8 µg/mL (≈ 20.1 µM) and the “FICI (FLC:INH)” value ([13]; Fractional Inhibitory Concentration Index, fluconazole + inhibitor) was 2. The “FICI (ITR:INH)” value ([13]; Fractional Inhibitory Concentration Index, itraconazole + inhibitor) was 1.03, the “FICI (KET:INH)” value ([13]; Fractional Inhibitory Concentration Index, ketoconazole + inhibitor) was 1.5 and the “INH MICc (FLC:INH)” value ([13]; MIC of the inhibitor in combination with fluconazole) was 64. For the same compound, the “INH MICc (ITR:INH)” value ([13]; MIC of the inhibitor in combination with itraconazole) was 2, the “INH MICc (KET:INH)” value ([13]; MIC of the inhibitor in combination with ketoconazole) was 32 and the “FLC FD (FLC:INH)” value ([13]; MIC-MICc fold decrease of fluconazole, negative = increase) was 1. The “ITR FD (ITR:INH)” value ([13]; MIC-MICc fold decrease of itraconazole, negative = increase) was 1, the “KET FD (KET:INH)” value ([13]; MIC-MICc fold decrease of ketoconazole, negative = increase) was 1 and the “INH FD (FLC:INH)” value ([13]; MIC-MICc fold decrease of the inhibitor, with fluconazole) was 1. The “INH FD (ITR:INH)” value ([13]; MIC-MICc fold decrease of the inhibitor, with itraconazole) was 32, the “INH FD (KET:INH)” value ([13]; MIC-MICc fold decrease of the inhibitor, with ketoconazole) was 2 and the “GM fungal MICc” value [14] was 8.
